# How the values were obtained:
# [1] = system: seedling blight of rice plant (pathogen Fusarium sp. and Rhizoctonia sp.); assay: Exterminating test on seedling blight of rice plant (Experimental Example 1); format: in vivo; conditions: 0.25g/box a.i., 5% dust mixed with soil
# Summary of the method: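 Pathogen-contaminated nursery soil (Fusarium sp., Rhizoctonia sp.) mixed with 5% compound dust at 5 g per box; Nihonbare rice sown, grown 7 days at 17° C in lighting chamber, then moved to field. Assessed 10 days later as percentage of healthy seedlings; commercial 4% hydroxyisoxazol dust run as control.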
# [2] = system: Rhizoctonia solani (damping-off of cucumber); assay: Exterminating test on damping-off of cucumber (Experimental Example 3); format: in vivo; conditions: 1,000 ppm, soil drench 50 ml per pot, 10 days
# Summary of the method: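 Pots of field soil infested with Rhizoctonia solani (5 g/pot), sown with 10 Azumamidori cucumber seeds, then drenched with 50 ml aqueous suspension of 80% wettable powder and kept in greenhouse. PCNB 50% wettable powder as control. Percentage of healthy seedlings scored 10 days after inoculation.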
# [3] = system: Fusarium wilt of cucumber; assay: Exterminating test on Fusarium wilt of cucumber (Experimental Example 4); format: in vivo, Fusarium oxysporum f, cucumerinum; conditions: 500 ppm, soil drench 100 ml per pot, two weeks
# Summary of the method: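 Pots of steam-sterilized soil mixed with 20 g infested soil, sown with 18 cucumber seeds (Tokiwazibai), drenched with 100 ml aqueous suspension of 80% wettable powder. Benlate 50% wettable powder run as control. Disease scored two weeks after planting as percentage of healthy seedlings.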
# [4] = system: Aspergillus niger; assay: Minimum inhibitory concentration, dilution methods (Example 14); format: cell-based; conditions: (1) potato-dextrose agar dilution method
# Excerpt: (§1) Bacteriocidal activity and fungicidal activity of the active compounds of the present invention were examined by potato-dextrose agar dilution method, [2] waxman's liquid medium dilution method or [3] glucose bouillon medium dilution method. The results are shown in Table 4 below as the minimum inhibitory concentration (the minimum concentration of active compound found to produce 100% control of the test bacteria and fungi).
# [5] = system: Bacillus subtilis; assay: as above; format: cell-based; conditions: (3) glucose bouillon medium dilution method
# Excerpt: as §1
# [6] = system: Cladosporium harbarum; assay: as above; format: cell-based; conditions: (1) potato-dextrose agar dilution method
# Excerpt: as §1
# [7] = system: Escherichia coli; assay: as above; format: cell-based; conditions: (3) glucose bouillon medium dilution method
# Excerpt: as §1
# [8] = system: Penicillium Citrinum; assay: as above; format: cell-based; conditions: (1) potato-dextrose agar dilution method
# Excerpt: as §1
# [9] = system: Staphylococcus aureus; assay: as above; format: cell-based; conditions: (3) glucose bouillon medium dilution method
# Excerpt: as §1
# [10] = system: Aspergillus niger, Penicillium citrinum, Cladosporium harbarum and chaetomium globosum; assay: Degree of growth inhibition of fungi on treated beach plates (Example 17); format: cell-based; design: scale not given here; conditions: numerical rating, 2 weeks
# Procedure: The emulsifiable concentrates which were prepared by Example 10 were diluted with water 400 times and 800 times to form emulsions.
# The square plates of beach of which a side was 5 cm long and thickness was 5 mm were dipped into the emulsion for 2 minutes and dried for 24 hours at room temperature.
# The square plates were placed on the surface of agar plates. The suspensions which contained spores of Aspergillus niger, Penicillium citrinum, Cladosporium harbarum and chaetomium globosum were respectively sprayed on the agar plates and the square plates.
# The test fungi were cultivated in the incubator at the humidity of 95% and the temperature of 28° C for 2 weeks.
# The degree of growth inhibition is defined in terms of the following numerical ratings.
# [11] = system: Aspergillus niger; assay: Growth inhibition zone around treated cotton cloth (Example 18); format: cell-based; conditions: emulsifiable concentrate diluted 1000 times
# Procedure: (§2) The emulsifiable concentrates which were prepared by Example 10 were diluted with water 1000 times to form an emulsion. A cloth of cotton was soaked into each emulsion for 2 minutes. The clothes were dried at room temperature and cut into a square of which a side was 1 cm long. Each kind of test bacteria and fungi was inoculated, separately on plates of potato-agar and one square cloth was placed on each of such plates. Test bacteria and fungi were cultivated at 28° C for 4 days. The width of the region of growth-inhibition which was formed a circumference of the cloth was examined.
# [12] = system: Bacillus subtilis; assay: as above; format: cell-based; conditions: emulsifiable concentrate diluted 1000 times
# Procedure: as §2
# [13] = system: Penicillium Citrinum; assay: as above; format: cell-based; conditions: emulsifiable concentrate diluted 1000 times
# Procedure: as §2
# [14] = system: Staphylococcus aureus; assay: as above; format: cell-based; conditions: emulsifiable concentrate diluted 1000 times
# Procedure: as §2
# [15] = system: cucumber (variety: Azumamidori); assay: Phytotoxicity on cucumber (Experimental Example 3); format: in vivo; conditions: 1,000 ppm
Structure (SMILES),Percentage of healthy seedlings [1],Percentage of healthy seedlings [2],Percentage of healthy seedlings [3],minimum inhibitory concentration [4],minimum inhibitory concentration [5],minimum inhibitory concentration [6],minimum inhibitory concentration [7],minimum inhibitory concentration [8],minimum inhibitory concentration [9],Degree of growth inhibition ([10]; 0.0125 %),Degree of growth inhibition ([10]; 0.025 %),width of the growth inhibition zone [11],width of the growth inhibition zone [12],width of the growth inhibition zone [13],width of the growth inhibition zone [14],"pest or weed control at 1000 ppm ([2]; Rhizoctonia solani, 240 h, read-out: Percentage of healthy seedlings)",Phytotoxicity [15]
O=C(NC=C(Cl)Cl)c1ccccc1[O-].O=C(NC=C(Cl)Cl)c1ccccc1[O-].[Zn+2] [compound 24],71.3%,100%,47.0%,10 mc g/ml,2.5 mc g/ml,2.5 mc g/ml,40 mc g/ml,10 mc g/ml,5 mc g/ml,3,3,5 mm,10 mm,5 mm,8 mm,,
"O=[N+]([O-])c1c(Cl)c(Cl)c(Cl)c(Cl)c1Cl [PCNB, pentachloronitro benzene, reference compound]",,,,,,,,,,,,,,,,45%,Nil

# From patent US4055640A, “Compositions and methods for controlling the growth of bacteria, fungi and algae using certain derivatives of N-(2,2-dichlorovinyl)salicylamides” (Nippon Kayaku Co., Ltd., priority 1975, dated 1977)
